By IC50 is commonly meant the concentration that inhibits the measured activity by half.

The experiment has as its target T1, recombinant human PDE5 (Homo sapiens, UniProt O76074).
T1 construct: host or cells: Saccharomyces cerevisiae protease-deficient strain BJ2-54 (ATCC 74465)
The experiment can be described thus: PDE5 inhibition (cGMP-PDE one-step assay). The format is biochemical. The settings on record: In vitro. As for the experimental part: The compounds of structural formula (I) were tested for an ability to inhibit PDE5. The ability of a compound to inhibit PDE5 activity is related to the IC50 value for the compound, i.e., the concentration of inhibitor required for 50% inhibition of enzyme activity. The IC50 value for compounds of structural formula (I) were determined using recombinant human PDE5.
Phosphodiesterase activity of the preparations was determined as follows. PDE assays utilizing a charcoal separation technique were performed essentially as described in Loughney et al. (1996). In this assay, PDE activity converts [32P]cAMP or [32P]cGMP to the corresponding [32P]5′-AMP or [32P]5′-GMP in proportion to the amount of PDE activity present. The [32P]5′-AMP or [32P]5′-GMP then was quantitatively converted to free [32P]phosphate and unlabeled adenosine or guanosine by the action of snake venom 5′-nucleotidase. […] The assay was performed at 30° C. in a 100 μL reaction mixture containing (final concentrations) 40 mM iris HCl (pH 8.0), 1 μM ZnSO4, 5 mM MgCl2, and 0.1 mg/mL bovine serum albumin (BSA). PDE enzyme was present in quantities that yield <30% total hydrolysis of substrate (linear assay conditions). The assay was initiated by addition of substrate ([…] [^32P]cAMP or cGMP), and the mixture was incubated for 12 minutes. Seventy-five (75) […] of Crotalus atrox venom then was added, and the incubation was continued for 3 minutes (15 minutes total). The reaction was stopped by addition of 200 μL of activated charcoal (25 mg/mL suspension in 0.1 M NaH2PO4, pH 4). After centrifugation. (750×g for 3 minutes) to sediment the charcoal, a sample of the supernatant was taken for radioactivity determination in a scintillation counter and the PDE activity was calculated.
cGMP-PDE activity of compounds of the present invention was measured using a one-step assay adapted from Wells et al., Biochim. Biophys. Acta, 384, 430 (1975). The reaction medium contained 50 mM Tris-HCl, pH 7.5, 5 mM magnesium acetate, 250 μg/ml 5′-Nucleotidase, 1 mM EGTA, and 0.15 μM 8-[H^3]-cGMP. Unless otherwise indicated, the enzyme used was a human recombinant PDE5 (ICOS Corp., Bothell, Wash.).
Compounds of the invention were dissolved in DMSO finally present at 2% in the assay.
As to `CN1CC(=O)N2[C@H](c3ccc4c(c3)OCO4)c3[nH]c4ccccc4c3C[C@]2(C)C1=O` [Example 1, (6R,12aR)-6-Benzo[1,3]dioxol-5-yl-2,12a-dimethyl-2,3,6,7,12,12a-hexahydro-pyrazino-[1,2′:1,6]pyrido[3,4-b]indole-1,4-dione], the IC50 is 0.046 µM.

Take `CN1CC(=O)N2[C@H](Cc3c([nH]c4ccccc34)[C@@]2(C)c2ccc3c(c2)OCO3)C1=O` [Example 2a, (+−, Cis)-6-Benzo[1,3]dioxol-5-yl-2,6-dimethyl-2,3,6,7,12,12a-hexahydropyrazino-[1′,2′:1,6]pyrido[3,4-b]indole-1,4-dione]: the IC50 is 0.685 µM.

For the compound `CN1CC(=O)N2[C@H](c3ccc4c(c3)OCO4)c3[nH]c4ccccc4c3[C@@H](c3ccccc3)[C@@H]2C1=O` (racemic) [Example 3, (+−, 6,12a cis-12,12a-trans)-6-Benzo-(1,3)-dioxol-5-yl-methyl-12-phenyl-2,3,6,7,12,12a-hexahydro-pyrazino[1′,2′:1,6]pyrido[3,4-b]indole-1,4-dione], the IC50 was determined as 0.047 µM.

For the compound `C[C@@H]1c2c([nH]c3ccccc23)[C@@H](c2ccc3c(c2)OCO3)N2C(=O)CN(C)C(=O)[C@@H]12` (racemic) [Example 4a, (+−, cis, trans methyl)-6-Benzo[1,3]dioxol-5-yl-2,12-dimethyl-2,3,6,7,12,12a-hexahydropyrazino[1′,2′:1,6]pyrido[3,4-b]indole-1,3-dione], the IC50 was determined as 0.004 µM.

With `CN1CC(=O)N2[C@H](Cc3c([nH]c4ccccc34)[C@]2(C)c2ccc3c(c2)OCO3)C1=O` [Example 2b, (+−, trans)-6-Benzo[1,3]dioxol-5-yl-2,6-dimethyl-2,3,6,7,12,12a-hexahydropyrazino-[1′,2′:1,6]pyrido[3,4-b]indole-1,4-dione], the IC50 is 0.26 µM.

Take `C[C@@H]1c2c([nH]c3ccccc23)[C@H](c2ccc3c(c2)OCO3)N2C(=O)CN(C)C(=O)[C@@H]12` (racemic) [Example 4b, (+−, trans, trans methyl)-6-Benzo[1,3]dioxol-5-yl-2,12-dimethyl-2,3,6,7,12,12a-hexahydropyrazino[1′,2′:1,6]pyrido[3,4-b]indole-1,3-dione]: the IC50 is 0.063 µM.

For `CN1CC(=O)N2[C@H](Cc3c([nH]c4ccccc34)[C@@]2(O)c2ccc3c(c2)OCO3)C1=O` [Example 5, (6S,12aR)-6-Benzo[1,3]dioxol-5-yl-6-hydroxy-2-methyl-2,3,6,7,12,12a-hexahydropyrzino[1′,2′:1,6]pyrido[3,4-b]indole-1,4-dione], the IC50 was 0.142 µM.

For the origin of these results see patent US7105506B2, “Tetracyclic compounds as PDE5-inhibitors” (Lilly Icos LLC, priority 2001, dated 2006).
